Tests used:
Trypanosoma cruzi [1] = assay: In vivo trial on Trypanosoma cruzi in the acute phase, Balb/c mice: serological evaluation (anti-T. cruzi ELISA); conditions: 50 mg oral
From the text: (§1) Animals and parasites: The Balb/c-type mice are bred in the animal house of the Health Sciences Research Institute (IICS, Asuncion, Paraguay) and are 6 to 8 weeks old at the time of the experimental protocols.
(§2) For these trials, the CL strain (Brener clone) of T. cruzi is used in the circulating form of the parasite (trypomastigotes). The animals are infected intraperitoneally with 5000 parasites; this strain produces its parasite peak 21 to 25 days after infection. Each week, the number of parasites is verified by means of a blood sample taken from the tail of the mouse.
(§3) Infection and treatment: The treatments with benznidazole, the reference medicinal product, and canthin-6-one begin 11 days after parasitic infection, at a rate of 50 mg/kg or 200 mM/kg for benznidazole and at the concentration of 5 mg/kg or 20 mM/kg for canthin-6-one. The duration of the treatments is fixed at two weeks and the chosen route of administration is oral for benznidazole and canthin-6-one; furthermore, a group of mice is treated with canthin-6-one administered subcutaneously. The untreated and infected mice are given 100 μl of a phosphate buffered saline solution.
(§4) • weekly counting of the number of parasites circulating in the peripheral blood throughout the experiment, i.e. 10 weeks; • observation of mortality; • two serological evaluations: 40 days post-infection, i.e. 15 days after treatment has been stopped, and 68 days post-infection, i.e. 45 days post-treatment. The serological evaluation is carried out by means of a Chagas ELISA assay (enzyme linked immunoassay) kit, IISC, Asuncion. The optical densities are measured with an ELISA plate reader (Titerek, Unistan, I).
(§5) Statistical studies: The mean and the standard deviations of each group are calculated, the differences between the groups are determined by means of the Student's test and the Kruskal-Wallis non-parametric analysis of variance test. The comparisons are carried out between the nontreated group and the treated groups, P<0.05.

Trypanosoma cruzi [2] = assay: In vivo trial on Trypanosoma cruzi in the acute phase, Balb/c mice: parasitological evaluation (parasites in peripheral blood); conditions: for number of parasites ± standard deviation: 50 mg/kg oral, n = 8
From the text: as §1, §2, §3, §4, §5

Trypanosoma cruzi [3] = assay: In vivo trial on Trypanosoma cruzi in the chronic phase, Balb/c mice: serological evaluation (ELISA); conditions: 50 mg/kg/d orally
From the text: (§6) The Balb/c-type mice are bred in the animal house of the Health Sciences Research Institute (IICS, Asuncion, Paraguay) and are 6 to 8 weeks old at the time of the experimental protocols. For this experimental protocol, the CL strain (Brener clone) of T. cruzi is used in the circulating form (trypomastigotes), and the strain is maintained in routine culture on an animal model by passage every 14 days. The animals are infected intraperitoneally with 1000 parasites. Under these experimental conditions, the parasites develop slowly; this strain produces a parasite peak 21 to 28 days after infection. The majority of the mice survive (70-80%) with slight deterioration of their general physical condition and with absent or subpatent parasitemia. Each week, the number of parasites is verified by taking a blood sample from the tail of the mouse.
(§7) For this long-duration experiment, the treatments begin 120 days after parasitic infection, when the parasitemia is subpatent in all the mice. The mice are then divided up into groups randomly. The treatments with benznidazole, the reference medicinal product, are administered at a concentration of 50 mg/kg or 200 mM/kg per day for 20 days, orally. Canthin-6-one is administered either orally or subcutaneously at a concentration of 5 mg/kg or 20 mM/kg per day for 20 days. A total dichloromethane extract of Zanthoxylum chiloperone var. angustifolium trunk bark is administered orally or subcutaneously at a concentration of 50 mg/kg per day for 20 days. For administration, the active principles are dissolved in 50 μl of a phosphate buffered saline (PBS) solution. The untreated and infected mice receive 50 μl of PBS.
• Weekly counting of the number of parasites circulating in the peripheral blood throughout the experiment, i.e. […] The serological evaluation is carried out using a Chagas ELISA assay (enzyme linked immunoassay) kit, IISC, Asuncion. The optical densities are measured with an ELISA plate reader (Titerek, Unistan, I). Statistical Studies:
(§8) The mean and the standard deviations of each group are calculated, and the differences between the groups are determined by means of the Student's test and the Kruskal-Wallis non-parametric analysis of variance test. The comparisons are carried out between the untreated group and the treated groups, P<0.05.

Trypanosoma cruzi [4] = assay: In vivo trial on Trypanosoma cruzi in the chronic phase, Balb/c mice: parasitemia and mortality; conditions: 50 mg/kg/d orally for 20 days
From the text: as §6
as §7, with “For this long-duration experiment, the treatments begin 120 days after parasitic infection, when the parasitemia is subpatent in all the mice.” left out
• Weekly counting of the number of parasites circulating in the peripheral blood throughout the experiment, i.e. 30 weeks. • Observation of mortality. • Three serological evaluations, 45 days before the beginning of treatments, 10 days after treatment has stopped and 75 days post-treatment. The serological evaluation is carried out using a Chagas ELISA assay (enzyme linked immunoassay) kit, IISC, Asuncion. The optical densities are measured with an ELISA plate reader (Titerek, Unistan, I). Statistical Studies:
as §8

O=C(Cn1ccnc1[N+](=O)[O-])NCc1ccccc1 [Benznidazole, benznidazole, reference compound]
1st serology (anti-T. cruzi ELISA, optical density) (Trypanosoma cruzi [1]; 40 days post-infection, 15 days post-treatment): 0.1692 ± 0.1179 | 2nd serology (anti-T. cruzi ELISA, optical density) (Trypanosoma cruzi [1]; 68 days post-infection, 45 days post-treatment): 0.7934 ± 0.8607 | eradication of Trypanosoma cruzi from the infected organism, acute phase (Trypanosoma cruzi [2]; 50 mg/kg/d): does not make it possible to obtain | number of parasites ± standard deviation (Trypanosoma cruzi [2]; day 4 post-infection (before treatment), two weeks from day 11): 0 | number of parasites ± standard deviation (Trypanosoma cruzi [2]; day 11 post-infection (period of treatment)): 0 | number of parasites ± standard deviation (Trypanosoma cruzi [2]; day 18 post-infection (period of treatment)): 34.9 ± 98.6 | number of parasites ± standard deviation (Trypanosoma cruzi [2]; day 25 post-infection (period of treatment)): 250.1 ± 503.5 | number of parasites ± standard deviation (Trypanosoma cruzi [2]; day 32 post-infection, two weeks from day 11): 296.8 ± 625.5 | number of parasites ± standard deviation (Trypanosoma cruzi [2]; day 39 post-infection, two weeks from day 11): 118.3 ± 192.9 | number of parasites ± standard deviation (Trypanosoma cruzi [2]; day 45 post-infection, two weeks from day 11): 300.8 ± 431.6 | number of parasites ± standard deviation (Trypanosoma cruzi [2]; day 53 post-infection, two weeks from day 11): 23.3 ± 65.8 | number of parasites ± standard deviation (Trypanosoma cruzi [2]; day 60 post-infection, two weeks from day 11): 65.3 ± 93.2 | number of parasites ± standard deviation (Trypanosoma cruzi [2]; day 68 post-infection, two weeks from day 11): 9.4 ± 26.5 | ELISA (optical density ± standard deviation) (Trypanosoma cruzi [3]; 10 d post-treatment): 1.712 ± 0.473 | ELISA (optical density ± standard deviation) (Trypanosoma cruzi [3]; 43 days before treatment (baseline)): 2.072 ± 0.220 | ELISA (optical density ± standard deviation) (Trypanosoma cruzi [3]; 75 d post-treatment): 1.979 ± 0.350 | Negative parasitemia/number of surviving mice (Trypanosoma cruzi [4]; 0 days post-treatment): 5/5 | Negative parasitemia/number of surviving mice (Trypanosoma cruzi [4]; 10 d post-treatment): 2/5 | Negative parasitemia/number of surviving mice (Trypanosoma cruzi [4]; 40 d post-treatment): 5/5 | Negative parasitemia/number of surviving mice (Trypanosoma cruzi [4]; 60 d post-treatment): 5/5

— US7705013B2, “Use of canthin-6-one, plant extracts containing same and derivatives thereof in the treatment of trypanosomiases” (Institut de Recherche pour le Developpement, priority 2002, dated 2010)
